IC50 data for 13 molecules are collected here from US20160083391A1, “TRICYCLIC PIPERAZINE DERIVATIVE” (Sunovion Pharmaceuticals Inc., priority 2014, published 2016).

The term IC50 denotes the concentration that gives 50% inhibition. Low values mean greater potency in that assay, high ones weaker potency in that assay.

This test has as its system PDE1. Put plainly: In vitro HTRF PDE1 inhibition assay. The settings on record: HTRF cGMP assay, 100 nM cyclic GMP, PDE (1A3, 1B or 1C) with calmodulin, 45 minutes at 37° C.; isoform of the tabulated values not stated. The format is biochemical. From the text:
An exemplary procedure for the in vitro Homogenous Time Resolved Fluorescence assay, which can be used to determine the inhibitory action of compounds of the invention toward. PDE1 or its isoforms, follows.
The HTRF PDE1 assay utilized the HTRF (Homogenous Time Resolved Fluorescence) technology, which is based on the competition between unlabeled cyclic nucleotide and cyclic nucleotide labeled with XL665 for the binding to cyclic nucleotide-specific antibody labeled with cryptate. The HTRF signal is thus inversely proportional to the concentration of cyclic nucleotide being measured. Since phosphodiesterases break down cyclic nucleotides the HTRF signal was used to determine PDE activity.
The Cisbio cGMP HTRF assay kit (Cat no: 62GM2PEC) was utilized. Cyclic GMP was diluted to 200 nM in HTRF assay buffer (1 mM CaCl2, 10 mM MgCl2, 10 mM Tris-HCl, 0.1% BSA, pH7.4). 10 μl of compound or DMSO was diluted in 200 nM cyclic GMP solution and added to wells of a 96 well white plate to give 100 nM cyclic GMP in 1% DMSO final concentration. PDE (1A3, 1B or 1C) was diluted to 2× working concentration in HTRF assay buffer with […] Calmodulin, and 10 μl was added to initiate the reaction. The plate was then incubated for 45 minutes at 37° C. d2-Labelled cyclic GMP and anti-cGMP cryptate were diluted in 50 mM phosphate buffer, 0.8M KF, 1% Triton X100, 0.2% BSA, pH7.0. Following incubation 10 μl d2-cGMP, then 10 μl anti cGMP cryptate were added to each well and the plate was incubated for 45 minutes at room temperature. The plate was then read on Perkin Elmer Victor at 2 different FRET readings ex/emm 340 nm/665 nm and 340 nm/615 nm.
Compounds having an IC50 of <1 μM, are denoted as +++. Compounds having an IC50 of 1-10 μM, are denoted as ++. Compounds having an IC50 of >10 μM, are denoted as +.
Background: TR-FRET usually uses a lanthanide donor and a delayed reading to cut background.
As to `CC1Cn2c(nc3c(cnn3C(C)C)c2=O)CN1C` (racemic) [Compound I-104, (±)-1-Isopropyl-7,8-dimethyl-6,7,8,9-tetrahydropyrazino[1,2-a]pyrazolo[3,4-d]pyrimidin-4(1H)-one], the concentration for half-maximal inhibition (IC50) was more than 10 µM.
Turning to `CC1CNCc2nc3c(cnn3C3CCCC3)c(=O)n21` (racemic) [Compound I-99, (±)-1-cyclopentyl-6-methyl-6,7,8,9-tetrahydropyrazino[1,2-a]pyrazolo[3,4-d]pyrimidin-4(1H)-one], the IC50 was more than 10 µM.
The same measure for `COc1ccc(CN2CCCn3c(nc4c(cnn4C(C)C)c3=O)C2)cc1` [Compound I-156, 1-Isopropyl-9-(4-methoxybenzyl)-7,8,9,10-tetrahydro-1H-pyrazolo[3′,4′:4,5]pyrimido[1,2-a][1,4]diazepin-4(6H)-one]: 1 to 10 µM.
The same measure for `O=c1c2cn[nH]c2nc2n1CCN(Cc1ccccc1)C2Cc1ccccc1` (racemic) [Compound I-34, (±)-8,9-Dibenzyl-6,7,8,9-tetrahydropyrazino[1,2-a]pyrazolo[3,4-d]pyrimidin-4(1H)-one]: more than 10 µM; for `COc1cccc(N2Cc3nc4c(cnn4C(C)C)c(=O)n3CC2C)c1` (racemic) [Compound I-151, (±)-1-Isopropyl-8-(3-methoxyphenyl)-7-methyl-6,7,8,9-tetrahydropyrazino[1,2-a]pyrazolo[3,4-d]pyrimidin-4(1H)-one]: less than 1 µM; for `CC(C)n1ncc2c(=O)n3c(nc21)CN(Cc1ccc2c(c1)OCO2)CC3` [Compound I-170, 8-(Benzo[d][1,3]dioxol-5-ylmethyl)-1-isopropyl-6,7,8,9-tetrahydropyrazino[1,2-a]pyrazolo[3,4-d]pyrimidin-4(1H)-one]: 1 to 10 µM.
Then `O=c1c2cnn(C3CCCC3)c2nc2n1CCN(c1cccc(Cl)c1)C2` [Compound I-90, 8-(3-Chlorophenyl)-1-cyclopentyl-6,7,8,9-tetrahydropyrazino[1,2-a]pyrazolo[3,4-d]pyrimidin-4(1H)-one], with 1 to 10 µM; and `CC(C)n1ncc2c(=O)n3c(nc21)CNC(Cc1ccccc1)C3` (racemic) [Compound I-109, (±)-7-Benzyl-1-isopropyl-6,7,8,9-tetrahydropyrazino[1,2-a]pyrazolo[3,4-d]pyrimidin-4(1H)-one], with more than 10 µM.
Consider `COc1ccc(CN2CCn3c(nc4c(nnn4C4CCCC4)c3=O)C2)cc1` [Compound I-127, 3-Cyclopentyl-6-(4-methoxybenzyl)-5,6,7,8-tetrahydropyrazino[1,2-a][1,2,3]triazolo[4,5-d]pyrimidin-10(3H)-one], for which the IC50 was more than 10 µM.
Take `O=c1c2cnn(C3CCOC3)c2nc2n1CCN(c1ccc(Cl)cc1)C2` (racemic) [Compound I-217, (±)-8-(4-Chlorophenyl)-1-(tetrahydrofuran-3-yl)-6,7,8,9-tetrahydropyrazino[1,2-a]pyrazolo[3,4-d]pyrimidin-4(1H)-one]: the concentration for half-maximal inhibition (IC50) is less than 1 µM.
`CC1Cn2c(nc3c(cnn3C(C)C)c2=O)CN1Cc1ccccc1` (racemic) [Compound I-105, (±)-8-Benzyl-1-isopropyl-7-methyl-6,7,8,9-tetrahydropyrazino[1,2-a]pyrazolo[3,4-d]pyrimidin-4(1H)-one] displayed a half-inhibitory concentration (IC50) of less than 1 µM.
The same measure for `COCCn1ncc2c(=O)n3c(nc21)CN(c1ccc(Cl)cc1)CC3` [Compound I-256, 8-(4-Chlorophenyl)-1-(2-methoxyethyl)-6,7,8,9-tetrahydropyrazino[1,2-a]pyrazolo[3,4-d]pyrimidin-4(1H)-one]: 1 to 10 µM.
The same measure for `COc1ccc(CN2Cc3nc4c(cnn4C4CCCC4)c(=O)n3C(C)C2)cc1` (racemic) [Compound I-122, (±)-1-Cyclopentyl-8-(4-methoxybenzyl)-6-methyl-6,7,8,9-tetrahydropyrazino[1,2-a]pyrazolo[3,4-d]pyrimidin-4(1H)-one]: 1 to 10 µM.
